Source: the NIST ThermoML archive (doi:10.1021/je900962v)
“And” between values parts separate entries of the source, which are not always exact repeats. Identical values can stand only once. ± gives the expanded uncertainty stated by the source.

Key:
[1] = 298.15 K
[2] = xn = mol fraction of the nth substance listed; conditions: 298.15 K

## CCCCOC(C)=O [butyl ethanoate]
[1]
  surface tension liquid-gas: 24.91 ± 0.3 mN/m

## CCCCOC(C)=O [butyl ethanoate] + O
[2]; x1 = 7.97e-05
  surface tension liquid-gas: 63.74 ± 0.5 mN/m
[2]; x1 = 7.99e-05
  surface tension liquid-gas: 64.49 ± 0.51 mN/m
[2]; x1 = 8.76e-05
  surface tension liquid-gas: 63.71 ± 0.5 mN/m
[2]; x1 = 8.81e-05
  surface tension liquid-gas: 64.3 ± 0.5 mN/m
[2]; x1 = 0.000104
  surface tension liquid-gas: 62.6 ± 0.5 mN/m
[2]; x1 = 0.000124
  surface tension liquid-gas: 61.81 ± 0.49 mN/m
[2]; x1 = 0.000131
  surface tension liquid-gas: 61.47 ± 0.49 mN/m
[2]; x1 = 0.000142
  surface tension liquid-gas: 61.15 ± 0.49 mN/m
[2]; x1 = 0.000173
  surface tension liquid-gas: 59.3 ± 0.48 mN/m
[2]; x1 = 0.000216
  surface tension liquid-gas: 57.5 ± 0.47 mN/m
[2]; x1 = 0.000274
  surface tension liquid-gas: 55.53 ± 0.46 mN/m
[2]; x1 = 0.000343
  surface tension liquid-gas: 53.31 ± 0.44 mN/m
[2]; x1 = 0.000439
  surface tension liquid-gas: 51.12 ± 0.43 mN/m
[2]; x1 = 0.000536
  surface tension liquid-gas: 49.09 ± 0.42 mN/m
[2]; x1 = 0.00067
  surface tension liquid-gas: 46.9 ± 0.41 mN/m
[2]; x1 = 0.000754
  surface tension liquid-gas: 45.57 ± 0.4 mN/m
[2]; x1 = 0.00081
  surface tension liquid-gas: 44.42 ± 0.4 mN/m
[2]; x1 = 0.000933
  surface tension liquid-gas: 43.1 ± 0.39 mN/m
[2]; x1 = 1
  surface tension liquid-gas: 24.91 ± 0.3 mN/m

## CCOC(C)=O [ethyl acetate]
[1]; Drop volume
  surface tension liquid-gas: 23.93 ± 0.15 mN/m

## CCOC(C)=O [ethyl acetate] + O
[2]; Drop volume, x1 = 0.0011
  surface tension liquid-gas: 62.08 ± 0.9 mN/m
[2]; Drop volume, x1 = 0.0013
  surface tension liquid-gas: 60.95 ± 0.91 mN/m
[2]; Drop volume, x1 = 0.0014
  surface tension liquid-gas: 60.43 ± 0.91 mN/m
[2]; Drop volume, x1 = 0.0017
  surface tension liquid-gas: 59.33 ± 0.93 mN/m
[2]; Drop volume, x1 = 0.0018
  surface tension liquid-gas: 58.8 ± 0.83 mN/m
[2]; Drop volume, x1 = 0.0025
  surface tension liquid-gas: 56.64 ± 0.86 mN/m
[2]; Drop volume, x1 = 0.0033
  surface tension liquid-gas: 54.17 ± 0.82 mN/m
[2]; Drop volume, x1 = 0.0044
  surface tension liquid-gas: 51.16 ± 0.54 mN/m
[2]; Drop volume, x1 = 0.0054
  surface tension liquid-gas: 48.98 ± 0.46 mN/m
[2]; Drop volume, x1 = 0.0061
  surface tension liquid-gas: 47.92 ± 0.44 mN/m
[2]; Drop volume, x1 = 0.008
  surface tension liquid-gas: 44.22 ± 0.33 mN/m
[2]; Drop volume, x1 = 0.0089
  surface tension liquid-gas: 43.31 ± 0.3 mN/m
[2]; Drop volume, x1 = 0.0118
  surface tension liquid-gas: 41.37 ± 0.25 mN/m
[2]; Drop volume, x1 = 0.0141
  surface tension liquid-gas: 38.97 ± 0.28 mN/m
[2]; Drop volume, x1 = 1
  surface tension liquid-gas: 23.93 ± 0.15 mN/m

## COC(C)=O [methyl ethanoate]
[1]; Drop volume
  surface tension liquid-gas: 24.79 ± 0.2 mN/m

## COC(C)=O [methyl ethanoate] + O
[2]; Drop volume, x1 = 0.004
  surface tension liquid-gas: 61.87 ± 0.48 mN/m
[2]; Drop volume, x1 = 0.0047
  surface tension liquid-gas: 60.57 ± 0.48 mN/m
[2]; Drop volume, x1 = 0.0056
  surface tension liquid-gas: 59.67 ± 0.36 mN/m
[2]; Drop volume, x1 = 0.0069
  surface tension liquid-gas: 57.62 ± 0.36 mN/m
[2]; Drop volume, x1 = 0.0093
  surface tension liquid-gas: 54.72 ± 0.32 mN/m
[2]; Drop volume, x1 = 0.0115
  surface tension liquid-gas: 53.25 ± 0.29 mN/m
[2]; Drop volume, x1 = 0.0147
  surface tension liquid-gas: 49.91 ± 0.26 mN/m
[2]; Drop volume, x1 = 0.0183
  surface tension liquid-gas: 48.18 ± 0.23 mN/m
[2]; Drop volume, x1 = 0.0214
  surface tension liquid-gas: 46.68 ± 0.24 mN/m
[2]; Drop volume, x1 = 0.0245
  surface tension liquid-gas: 44.35 ± 0.23 mN/m
[2]; Drop volume, x1 = 0.029
  surface tension liquid-gas: 42.63 ± 0.21 mN/m
[2]; Drop volume, x1 = 0.0341
  surface tension liquid-gas: 40.26 ± 0.21 mN/m
[2]; Drop volume, x1 = 0.0433
  surface tension liquid-gas: 36.64 ± 0.2 mN/m
[2]; Drop volume, x1 = 0.0523
  surface tension liquid-gas: 33.49 ± 0.19 mN/m
[2]; Drop volume, x1 = 0.0586
  surface tension liquid-gas: 31.61 ± 0.18 mN/m
[2]; Drop volume, x1 = 0.0702
  surface tension liquid-gas: 29.12 ± 0.17 mN/m
[2]; Drop volume, x1 = 1
  surface tension liquid-gas: 24.79 ± 0.2 mN/m

## CCCOC(C)=O [propyl ethanoate]
[1]; Drop volume
  surface tension liquid-gas: 24.22 ± 0.16 mN/m

## CCCOC(C)=O [propyl ethanoate] + O
[2]; Drop volume, x1 = 0.00017
  surface tension liquid-gas: 65.86 ± 1.3 mN/m
[2]; Drop volume, x1 = 0.00023
  surface tension liquid-gas: 64.54 ± 1.5 mN/m
[2]; Drop volume, x1 = 0.00031
  surface tension liquid-gas: 62.64 ± 1.3 mN/m and 63.23 ± 1.4 mN/m
[2]; Drop volume, x1 = 0.00038
  surface tension liquid-gas: 61.64 ± 1.3 mN/m
[2]; Drop volume, x1 = 0.00041
  surface tension liquid-gas: 61.43 ± 1.3 mN/m
[2]; Drop volume, x1 = 0.00049
  surface tension liquid-gas: 60.29 ± 1.3 mN/m
[2]; Drop volume, x1 = 0.00052
  surface tension liquid-gas: 59.4 ± 1.2 mN/m
[2]; Drop volume, x1 = 0.00057
  surface tension liquid-gas: 59.02 ± 1.2 mN/m
[2]; Drop volume, x1 = 0.00071
  surface tension liquid-gas: 57.47 ± 1.1 mN/m
[2]; Drop volume, x1 = 0.00074
  surface tension liquid-gas: 56.94 ± 1.1 mN/m
[2]; Drop volume, x1 = 0.00083
  surface tension liquid-gas: 56.17 ± 1.1 mN/m
[2]; Drop volume, x1 = 0.00103
  surface tension liquid-gas: 54.38 ± 1.5 mN/m
[2]; Drop volume, x1 = 0.00104
  surface tension liquid-gas: 53.7 ± 1.5 mN/m
[2]; Drop volume, x1 = 0.00114
  surface tension liquid-gas: 53.49 ± 1.5 mN/m
[2]; Drop volume, x1 = 0.00116
  surface tension liquid-gas: 53.22 ± 1.5 mN/m
[2]; Drop volume, x1 = 0.00142
  surface tension liquid-gas: 50.93 ± 1.6 mN/m and 51.11 ± 1.6 mN/m
[2]; Drop volume, x1 = 0.00158
  surface tension liquid-gas: 49.17 ± 1.6 mN/m
[2]; Drop volume, x1 = 0.00159
  surface tension liquid-gas: 49.3 ± 1.6 mN/m
[2]; Drop volume, x1 = 0.00208
  surface tension liquid-gas: 46.76 ± 1.7 mN/m
[2]; Drop volume, x1 = 0.00239
  surface tension liquid-gas: 45.44 ± 1.7 mN/m
[2]; Drop volume, x1 = 0.00318
  surface tension liquid-gas: 42.65 ± 1.8 mN/m
[2]; Drop volume, x1 = 0.00355
  surface tension liquid-gas: 41.31 ± 1.3 mN/m
[2]; Drop volume, x1 = 0.00367
  surface tension liquid-gas: 40.63 ± 1.2 mN/m
[2]; Drop volume, x1 = 0.0038
  surface tension liquid-gas: 40.55 ± 1.1 mN/m
[2]; Drop volume, x1 = 1
  surface tension liquid-gas: 24.22 ± 0.16 mN/m

## O [water]
[1]; Drop volume
  surface tension liquid-gas: 71.57 ± 0.27 mN/m

## O [water] + CCCCOC(C)=O
[2]; x2 = 0
  surface tension liquid-gas: 71.57 ± 0.54 mN/m

## O [water] + CCCOC(C)=O
[2]; Drop volume, x2 = 0
  surface tension liquid-gas: 71.57 ± 0.27 mN/m

## O [water] + CCOC(C)=O
[2]; Drop volume, x2 = 0
  surface tension liquid-gas: 71.57 ± 0.27 mN/m

## O [water] + COC(C)=O
[2]; Drop volume, x2 = 0
  surface tension liquid-gas: 71.57 ± 0.27 mN/m
